Test results as given in patent US11999727B2 (Tango Therapeutics, Inc., priority 2020, dated 2024).
Like-named read-outs stand apart in the source and are kept apart here.

Tests used:
PRMT5 [1] = molecular target: T1, PRMT5 (Homo sapiens, UniProt O14744); experiment: PRMT5 biochemical IC50 assay with SAM as cofactor; conditions: PRMT5, SAM as cofactor; read-out: SAM IC50
T1 construct: purchased Viva (custom protein)

PRMT5 [2] = molecular target: T1, PRMT5; experiment: PRMT5 biochemical IC50 assay with no cofactor; conditions: PRMT5, no cofactor; read-out: No Cofactor/ rel IC50
Source text: Table 1 indicates IC50 values (μM) against PRMT5 for exemplary compounds in the presence of SAM as cofactor, with no cofactor, and with MTA as cofactor, respectively (columns 4-6). […] Ki values can be calculated from the IC50 values as described in the Examples section. As detailed in the Examples section, for the assay performed in the presence of SAM, IC50=Ki×1.5 (Ki=IC50/1.5).

PRMT5 [3] = molecular target: T1, PRMT5; experiment: PRMT5 biochemical IC50 assay with MTA as cofactor; conditions: PRMT5, MTA as cofactor; read-out: MTA IC50
[4] = tested on: HAP1 MTAP-deleted cell line; experiment: Viability assay, MTAP-deleted cell line; assay type: cell-based; conditions: Homo sapiens, read-out: HAP1 MTAP deleted viability
Source text: Table 1 additionally indicates IC50 values in a viability assay for the MTAP-deleted cell line (column 10), indicating the effect of treatment with compound on cell survival.

[5] = tested on: HAP1 MTAP-deleted cell line; experiment: SDMA in-cell western assay, HAP1 MTAP-deleted; assay type: cell-based; conditions: for IC50: Homo sapiens, HAP1, SDMA in-cell western, HAP1 MTAP-deleted, read-out: HAP 1 MTAP deleted IC50; for MTAP intact/deleted ratio: IC50 ratio HAP1 MTAP-intact / HAP1 MTAP-deleted, SDMA in-cell western
Summary of the method: (§1)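 Isogenic HAP1 pair: the MTAP-intact line expresses endogenous MTAP, and the deleted line is MTAP-null. Symmetric dimethylarginine was detected by in-cell western and IC50 values derived for each line.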

[6] = tested on: HAP1 MTAP-intact cell line; experiment: SDMA in-cell western assay, HAP1 MTAP-intact; assay type: cell-based; conditions: HAP1 MTAP-intact, read-out: MTAP HAP1 intact IC50
Summary of the method: as §1

[7] = HAP1, viability, HAP1 MTAP-deleted cell line
[8] = Homo sapiens, HAP1, SDMA in-cell western
[9] = HAP1, viability assay, MTAP-deleted cell line

T1 sequence (O14744 whole entry): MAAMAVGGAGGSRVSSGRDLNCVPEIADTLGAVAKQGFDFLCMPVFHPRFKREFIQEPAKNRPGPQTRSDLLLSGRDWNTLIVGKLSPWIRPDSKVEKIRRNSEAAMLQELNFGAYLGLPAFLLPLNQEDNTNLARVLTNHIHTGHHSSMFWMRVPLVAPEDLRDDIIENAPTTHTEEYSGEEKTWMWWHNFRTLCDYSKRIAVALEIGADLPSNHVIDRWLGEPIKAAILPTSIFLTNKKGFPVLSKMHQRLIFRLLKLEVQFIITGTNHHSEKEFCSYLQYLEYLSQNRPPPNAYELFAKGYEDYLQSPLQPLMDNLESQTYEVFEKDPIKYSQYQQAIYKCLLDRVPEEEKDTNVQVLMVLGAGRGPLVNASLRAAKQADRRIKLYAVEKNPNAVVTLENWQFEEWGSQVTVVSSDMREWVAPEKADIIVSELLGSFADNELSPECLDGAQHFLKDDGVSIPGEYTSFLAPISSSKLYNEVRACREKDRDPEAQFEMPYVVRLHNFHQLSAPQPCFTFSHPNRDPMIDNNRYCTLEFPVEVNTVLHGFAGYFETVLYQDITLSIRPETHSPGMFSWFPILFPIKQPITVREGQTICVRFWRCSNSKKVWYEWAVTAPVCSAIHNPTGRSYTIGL
T1 sequence (Q9BQA1 whole entry partner): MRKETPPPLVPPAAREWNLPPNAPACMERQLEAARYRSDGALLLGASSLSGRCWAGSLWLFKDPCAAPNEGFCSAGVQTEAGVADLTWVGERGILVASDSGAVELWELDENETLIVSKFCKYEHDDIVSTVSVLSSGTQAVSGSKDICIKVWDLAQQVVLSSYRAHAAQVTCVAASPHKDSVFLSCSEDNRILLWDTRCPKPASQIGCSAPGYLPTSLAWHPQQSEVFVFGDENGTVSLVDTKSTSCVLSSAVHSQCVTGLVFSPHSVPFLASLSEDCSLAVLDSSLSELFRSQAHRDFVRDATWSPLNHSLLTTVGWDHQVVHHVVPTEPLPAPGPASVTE

| IC50 (PRMT5 [1]) | IC50 (PRMT5 [2]) | IC50 (PRMT5 [3]) | IC50 [5] | IC50 [6, 8] | IC50 ([6]; SDMA in-cell western) | SMILES | IC50 [4, 7] | MTAP intact/deleted ratio [5] | IC50 [4, 9] |
| --- | --- | --- | --- | --- | --- | --- | --- | --- | --- |
| > 500 nM | > 500 nM | > 500 nM | > 1000 nM | > 1000 nM | – | CCc1cc(NC(=O)C(=O)N2C[C@@H](C)CC[C@@H]2c2ccc(N3CCN(CC)CC3)cc2)cnc1N (single isomer, unassigned) [Compound 1360] | > 10000 nM | – | – |
| > 500 nM | > 500 nM | > 500 nM | > 1000 nM | > 1000 nM | – | C[C@@H]1CC[C@@H](c2ccc3[nH]ncc3c2)N(C(=O)C(=O)Nc2cnc(N)c(C3CC3)c2)C1 (single isomer, unassigned) [Compound 1361] | > 10000 nM | – | – |
| 50 to 500 nM | < 50 nM | < 50 nM | < 100 nM | 100 to 1000 nM | – | COc1ncc(NC(=O)C(=O)N2C[C@H](C)[C@H](OC)C[C@H]2c2ccc3scnc3c2)cc1C(N)=O (single isomer, unassigned) [Compound 1364] | < 1000 nM | A (an IC50 ratio greater than or equal to 10 fold) | – |
| 50 to 500 nM | < 50 nM | < 50 nM | < 100 nM | < 100 nM | – | CO[C@H]1C[C@H](c2ccc3scnc3c2)N(C(=O)C(=O)Nc2cnc(N)c(C3CC3)c2)C[C@H]1C (single isomer, unassigned) [Compound 1370] | < 1000 nM | A (an IC50 ratio greater than or equal to 10 fold) | – |
| 50 to 500 nM | < 50 nM | < 50 nM | < 100 nM | 100 to 1000 nM | – | CCc1cc(NC(=O)C(=O)N2C[C@@H](C)CC[C@@H]2c2ccc(N3CCN(C)CC3)cc2)cnc1N (single isomer, unassigned) [Compound 1371] | < 1000 nM | A (an IC50 ratio greater than or equal to 10 fold) | – |
| 50 to 500 nM | < 50 nM | < 50 nM | < 100 nM | 100 to 1000 nM | – | CCc1cc(NC(=O)C(=O)N2C[C@H](C)CC[C@H]2c2ccc3c(cnn3CCN(C)C)c2)cnc1N (single isomer, unassigned) [Compound 1374] | < 1000 nM | A (an IC50 ratio greater than or equal to 10 fold) | – |
| > 500 nM | > 500 nM | > 500 nM | > 1000 nM | > 1000 nM | – | CCc1cc(NC(=O)C(=O)N2C[C@H](C)CC[C@H]2c2ccc3sc(CCOC)nc3c2)cnc1N (single isomer, unassigned) [Compound 1375] | > 10000 nM | – | – |
| 50 to 500 nM | < 50 nM | < 50 nM | < 100 nM | 100 to 1000 nM | – | CCc1cc(NC(=O)C(=O)N2C[C@@H](C)CC[C@@H]2c2ccc3sc(CCOC)nc3c2)cnc1N (single isomer, unassigned) [Compound 1386] | < 1000 nM | A (an IC50 ratio greater than or equal to 10 fold) | – |
| 50 to 500 nM | 50 to 500 nM | < 50 nM | < 100 nM | 100 to 1000 nM | – | Cc1cc(NC(=O)C(=O)N2C[C@@H](C)CC[C@@H]2c2cc3cn[nH]c3s2)cnc1N (single isomer, unassigned) [Compound 1392] | < 1000 nM | A (an IC50 ratio greater than or equal to 10 fold) | – |
| 50 to 500 nM | < 50 nM | < 50 nM | < 100 nM | – | < 100 nM | CCc1cc(NC(=O)C(=O)N2C[C@@H](C)CC[C@@H]2c2ccc3sc([C@H]4CCN(C)C(C)(C)C4)nc3c2)cnc1N (single isomer, unassigned) [Compound 1397] | < 1000 nM | A (an IC50 ratio greater than or equal to 10 fold) | – |
| 50 to 500 nM | < 50 nM | < 50 nM | < 100 nM | 100 to 1000 nM | – | C[C@@H]1CC[C@@H](c2ccc3cn(C)nc3c2)N(C(=O)C(=O)Nc2cnc(N)c(C3CC3)c2)C1 (single isomer, unassigned) [Compound 1403] | < 1000 nM | A (an IC50 ratio greater than or equal to 10 fold) | – |
| > 500 nM | > 500 nM | 50 to 500 nM | > 1000 nM | > 1000 nM | – | CC(=O)N1CCC(c2cccc(C3CCCCN3C(=O)C(=O)Nc3cncc(C)c3)c2)CC1 (stereo not drawn) [Compound 7, 2-(2-(3-(1-acetylpiperidin-4-yl)phenyl)piperidin-1-yl)-N-(5-methylpyridin-3-yl)-2-oxoacetamide] | – | C (an IC50 ratio of less than 3 fold) | > 10000 nM |
| 50 to 500 nM | 50 to 500 nM | < 50 nM | 100 to 1000 nM | > 1000 nM | – | Cc1cc(NC(=O)C(=O)N2CCCCC2c2cccs2)cnc1N (stereo not drawn) [Compound 9, N-(6-Amino-5-methylpyridin-3-yl)-2-oxo-2-(2-(thiophen-2-yl)piperidin-1-yl)acetamide] | – | A (an IC50 ratio greater than or equal to 10 fold) | > 10000 nM |
| > 500 nM | > 500 nM | 50 to 500 nM | > 1000 nM | > 1000 nM | – | Cc1cncc(NC(=O)C(=O)N2CCCCC2c2cccc(N(C)C)c2)c1 (stereo not drawn) [Compound 15, 2-(2-(3-(dimethylamino)phenyl)piperidin-1-yl)-N-(5-methylpyridin-3-yl)-2-oxoacetamide] | – | C (an IC50 ratio of less than 3 fold) | > 10000 nM |
| 50 to 500 nM | > 500 nM | 50 to 500 nM | 100 to 1000 nM | > 1000 nM | – | Cn1nccc1C1CCCCN1C(=O)C(=O)Nc1cncc(C(N)=O)c1 (stereo not drawn) [Compound 26, 5-[[2-[2-(2-methylpyrazol-3-yl)-1-piperidyl]-2-oxo-acetyl]amino]pyridine-3-carboxamide] | – | A (an IC50 ratio greater than or equal to 10 fold) | > 10000 nM |
| 50 to 500 nM | > 500 nM | 50 to 500 nM | 100 to 1000 nM | > 1000 nM | – | NC(=O)c1cncc(NC(=O)C(=O)N2CCCCC2c2ccccc2)c1 (stereo not drawn) [Compound 29, 5-[[2-oxo-2-(2-phenyl-1-piperidyl)acetyl]amino]pyridine-3-carboxamide] | – | A (an IC50 ratio greater than or equal to 10 fold) | > 10000 nM |
| 50 to 500 nM | 50 to 500 nM | 50 to 500 nM | 100 to 1000 nM | > 1000 nM | – | Cc1cc(NC(=O)C(=O)N2CCCCC2C2CCCCC2)cnc1N (stereo not drawn) [Compound 30, N-(6-amino-5-methyl-3-pyridyl)-2-[2-cyclohexyl-1-piperidyl]-2-oxo-acetamide] | – | A (an IC50 ratio greater than or equal to 10 fold) | > 10000 nM |
| 50 to 500 nM | 50 to 500 nM | 50 to 500 nM | > 1000 nM | > 1000 nM | – | Cc1cc(NC(=O)C(=O)N2CCCCC2c2cccnc2)cnc1N (stereo not drawn) [Compound 38, N-(6-Amino-5-methyl-3-pyridyl)-2-oxo-2-[2-(3-pyridyl)-1-piperidyl]acetamide] | – | B (an IC50 ratio greater than or equal to 3 fold but lower than 10 fold) | > 10000 nM |
| > 500 nM | > 500 nM | 50 to 500 nM | 100 to 1000 nM | > 1000 nM | – | CC1(C)CCC(c2ccccc2)N(C(=O)C(=O)Nc2cncc(C(N)=O)c2)C1 (stereo not drawn) [Compound 45, 5-(2-(5,5-dimethyl-2-phenylpiperidin-1-yl)-2-oxoacetamido)nicotinamide] | – | A (an IC50 ratio greater than or equal to 10 fold) | > 10000 nM |
| 50 to 500 nM | 50 to 500 nM | < 50 nM | 100 to 1000 nM | > 1000 nM | – | Cc1csc(C2CCCCN2C(=O)C(=O)Nc2cnc(N)c(C)c2)n1 (stereo not drawn) [Compound 49, N-(6-Amino-5-methyl-3-pyridyl)-2-[2-(4-methylthiazol-2-yl)-1-piperidyl]-2-oxo-acetamide] | – | A (an IC50 ratio greater than or equal to 10 fold) | > 10000 nM |
| > 500 nM | 50 to 500 nM | 50 to 500 nM | < 100 nM | > 1000 nM | – | Cc1cc(NC(=O)C(=O)N2CCCCC2C2CCCC2)cnc1N (stereo not drawn) [Compound 61, N-(6-amino-5-methyl-3-pyridyl)-2-(2-cyclopentyl-1-piperidyl)-2-oxo-acetamide] | – | A (an IC50 ratio greater than or equal to 10 fold) | 1000 to 10000 nM |
